Data on 20 compounds can be found in patent US20080200635A1, “POLYSILANE COMPOUND AND SYNTHESIS METHOD, ULTRAVIOLET-RAY CURABLE INK COMPOSITION, INKJET RECORDING METHOD AND APPARATUS, AND INK CONTAINER” (SEIKO EPSON CORPORATION, priority 2007, published 2008).

A short description of data set [1]: Viscosity of monomers at 25° C. Type of data set: physicochemical. As to conditions: measured value at 25° C. The procedure: The viscosities in the foregoing table are a measured value at 25° C.
The conditions of data set [2]: primary irritation index; cited from earlier work.

`C=C(C)C(=O)OCCCCOC(=O)C(=C)C` [1,4-Butanediol dimethacrylate] returned a Viscosity in data set [1] of 7 mPa · s. Further, the P.I.I. in data set [2] was 2.0.

Compound `C=CC(=O)OCC1COC(C)(CC(C)C)O1` (centres unmarked) [(2-Methyl-2-isobutyl-1,3-dioxolan-4-yl)methyl acrylate] returned a Viscosity in data set [1] of 5.3 mPa · s. For the same compound, in data set [2], the P.I.I. was 1.0.

The compound `C=C(C)C(=O)OCC(C)(C)COC(=O)C(=C)C` [Neopentyl glycol dimethacrylate] gave a Viscosity in data set [1] of 7 mPa · s. The P.I.I. in data set [2] is on record as 0.0.

Glycerin PO-modified triacrylate: the Viscosity in data set [1] was determined as 75 mPa · s.

The compound `C=C(C)C(=O)OCCOCCOCCOCCOC(=O)C(=C)C` [Tetraethylene glycol dimethacrylate] had a Viscosity in data set [1] of 14 mPa · s. Moreover, the P.I.I. in data set [2] was 0.5.

Compound `C=CC(=O)OCCCCCCCCCOC(=O)C=C` [1,9-Nonanediol diacrylate] had a Viscosity in data set [1] of 21 mPa · s. Besides, the P.I.I. in data set [2] is given as 2.0.

`C=C(C)C(=O)OCCCCCCOC(=O)C(=C)C` [1,6-Hexanediol dimethacrylate] displayed a Viscosity in data set [1] of 6 mPa · s. Further, the P.I.I. in data set [2] was 0.5.

As to `C=C(C)C(=O)OCCOC(=O)C(=C)C` [Ethylene glycol dimethacrylate], the Viscosity in data set [1] is recorded as 3 mPa · s. For the same compound, the P.I.I. in data set [2] is 0.6.

`C=C(C)C(=O)OCC(CC)(COC(=O)C(=C)C)COC(=O)C(=C)C` [Trimethylolpropane trimethacrylate] came in with a Viscosity in data set [1] of 42 mPa · s. For the same compound, the P.I.I. in data set [2] is 0.8.

On to `C=CC(=O)OCC(C)OCC(C)OCC(C)OC(=O)C=C` (centres unmarked) [Tripropylene glycol diacrylate], for which the Viscosity in data set [1] came to 12 mPa · s. Moreover, the P.I.I. in data set [2] is reported as 1.6.

In data set [1], Trimethylolpropane modified triacrylate had a Viscosity of 55 mPa · s. Besides, the P.I.I. in data set [2] is 1.5.

Turning to `C=CC(=O)O[C@@H]1C[C@H]2CC[C@]1(C)C2(C)C` [Isobonyl acrylate], the Viscosity in data set [1] is on record as 2.6 mPa · s. The P.I.I. in data set [2] is 0.6.

Compound `C=CC(=O)OCCOCCOC` [Methoxy diethylene glycol monoacrylate] returned a Viscosity in data set [1] of 2 mPa · s. Further, the P.I.I. in data set [2] was 0.7.

Regarding `C=CC(=O)N1CCOCC1` [Acryloyl morpholine], in data set [1], the Viscosity turned out to be 12 mPa · s.

For the compound Polyethylene glycol #400 diacrylate, in data set [1], the Viscosity is reported as 58 mPa · s. Further, in data set [2], the P.I.I. is given as 0.4.

`C=C(C)C(=O)OCC(O)COC(=O)C(=C)C` [2-Hydroxy-1,3-dimethacryloxypropane] came in with a Viscosity in data set [1] of 37 mPa · s. The P.I.I. in data set [2] is given as 0.6.

Compound `C=CC(=O)OCCOc1ccccc1` [Phenoxyethyl acrylate] showed a Viscosity in data set [1] of 3.3 mPa · s. Also, the P.I.I. in data set [2] is listed as 1.7.

As for “Trimethylolpropane PO-modified triacrylate”, in data set [1], the Viscosity worked out at 60 mPa · s. Besides, the P.I.I. in data set [2] is listed as 0.1.

In data set [1], `C=C(C)C(=O)OCCOCCOC(=O)C(=C)C` [Diethylene glycol dimethacrylate] displayed a Viscosity of 5 mPa · s. For the same compound, in data set [2], the P.I.I. is listed as 0.5.

Regarding `C=C(C)C(=O)OCC1COC(C)(CC)O1` (centres unmarked) [(2-Methyl-2-ethyl-1,3-dioxolan-4-yl)methyl methacrylate], the Viscosity in data set [1] was determined as 5.1 mPa · s. Also, in data set [2], the P.I.I. is listed as 1.3.
